Reference: PubChem BioAssay AID328 (DTP/NCI, 2004)
Several values for one entry are separate records, joined by “and”; a condition that tells them apart may be missing. Equal values may be shown once. Inconclusive results and toxic doses are left out.

System: BDF1 mice, P388 leukemia ip, median survival T/C
Experiment: NCI In Vivo Anticancer Drug Screen. Data for tumor model P388 Leukemia (intraperitoneal) in B6D2F1 (BDF1) mice
Settings: endpoint: median survival time, higher = longer survival
Summary of the method: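 Antitumour effect was judged in vivo: survival in drug-treated mice, normalised to that of vehicle-dosed controls, gives the reported T/C.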

[1] = dose: 200.0 mg/kg/injection, schedule: Q04DX003 (ip), vehicle: saline with Tween-80
[2] = dose: 100.0 mg/kg/injection, schedule: Q04DX003 (ip), vehicle: saline with Tween-80
[3] = dose: 400.0 mg/kg/injection, schedule: Q04DX003 (ip), vehicle: saline with Tween-80
[4] = dose: 25.0 mg/kg/injection, schedule: Q04DX003 (ip), vehicle: Klucel (hydroxypropylcellulose) (HPC)
[5] = dose: 50.0 mg/kg/injection, schedule: Q04DX003 (ip), vehicle: Klucel (hydroxypropylcellulose) (HPC)
[6] = dose: 6.25 mg/kg/injection, schedule: Q01DX009 (ip), vehicle: Klucel (hydroxypropylcellulose) (HPC)
[7] = dose: 100.0 mg/kg/injection, schedule: Q01DX009 (ip), vehicle: saline with Tween-80
[8] = dose: 200.0 mg/kg/injection, schedule: Q01DX009 (ip), vehicle: saline with Tween-80

O=[N+]([O-])CC(OCCO)C(Cl)(Cl)Cl (stereo not given)
T/C (dose: 3.12 mg/kg/injection, schedule: Q04DX003 (ip), vehicle: saline): 95 % of control
T/C (dose: 6.25 mg/kg/injection, schedule: Q01DX009 (ip), vehicle: acetone): 110 % of control
T/C (dose: 6.25 mg/kg/injection, schedule: Q04DX003 (ip), vehicle: saline): 100 % of control
T/C (dose: 12.5 mg/kg/injection, schedule: Q01DX009 (ip), vehicle: acetone): 89 % of control
T/C (dose: 12.5 mg/kg/injection, schedule: Q04DX003 (ip), vehicle: saline): 95 % of control
T/C (dose: 18.0 mg/kg/injection, schedule: Q04DX003 (ip), vehicle: saline with Tween-80): 118 % of control
T/C (dose: 28.0 mg/kg/injection, schedule: Q04DX003 (ip), vehicle: saline with Tween-80): 90 % of control
T/C (dose: 40.0 mg/kg/injection, schedule: Q04DX003 (ip), vehicle: saline with Tween-80): 86 % of control

CC1(C)O[C@]2(C)CC[C@@H]1[C@@H](O)[C@@H]2N1CCCCC1
T/C (dose: 50.0 mg/kg/injection, schedule: Q01DX005 (ip), vehicle: saline with Tween-80): 109 % of control
T/C (dose: 100.0 mg/kg/injection, schedule: Q01DX005 (ip), vehicle: saline with Tween-80): 111 % of control
T/C (dose: 200.0 mg/kg/injection, schedule: Q01DX005 (ip), vehicle: saline with Tween-80): 97 % of control

C=CC(=O)NCNC(=O)CCBr
T/C [1]: 150 % of control
T/C (dose: 300.0 mg/kg/injection, schedule: Q04DX003 (ip), vehicle: saline with Tween-80): 170 % of control

NC(=O)NN=C(CS)CS
T/C (dose: 6.25 mg/kg/injection, schedule: Q01DX009 (ip), vehicle: gum acacia): 101 % of control
T/C (dose: 12.5 mg/kg/injection, schedule: Q01DX009 (ip), vehicle: gum acacia): 100 % of control
T/C (dose: 25.0 mg/kg/injection, schedule: Q01DX009 (ip), vehicle: gum acacia): 102 % of control
T/C (dose: 50.0 mg/kg/injection, schedule: Q01DX009 (ip), vehicle: gum acacia): 100 % of control

COc1ccccc1NC(=O)Oc1ccc(OCc2ccccc2)cc1
T/C [2]: 95 % of control
T/C [1]: 87 % of control
T/C [3]: 100 % of control

O=c1[nH]cnc2c1nc1n2CCC1
T/C (dose: 50.0 mg/kg/injection, schedule: Q04DX003 (ip), vehicle: saline with Tween-80): 90 % of control
T/C [2]: 90 % of control
T/C [1]: 113 % of control

CC1CCCC(C)(CO)O1 (stereo not given)
T/C (dose: 100.0 mg/kg/injection, schedule: Q04DX003 (ip), vehicle: saline): 115 % of control
T/C (dose: 200.0 mg/kg/injection, schedule: Q04DX003 (ip), vehicle: saline): 115 % of control
T/C (dose: 400.0 mg/kg/injection, schedule: Q04DX003 (ip), vehicle: saline): 105 % of control

CCOC(=O)NC(=S)n1ncnc1N
T/C (dose: 8.75 mg/kg/injection, schedule: Q01DX009 (ip), vehicle: saline): 95 % of control
T/C (dose: 12.5 mg/kg/injection, schedule: Q04DX003 (ip), vehicle: Klucel (hydroxypropylcellulose) (HPC)): 110 % of control
T/C (dose: 17.5 mg/kg/injection, schedule: Q01DX009 (ip), vehicle: saline): 105 % of control
T/C [4]: 100 % of control
T/C (dose: 35.0 mg/kg/injection, schedule: Q01DX009 (ip), vehicle: saline): 90 % of control
T/C [5]: 100 % of control

C[C@@H]1CC[C@@]2(NC1)O[C@H]1C[C@H]3[C@@H]4CC=C5C[C@@H](O)CC[C@]5(C)[C@H]4CC[C@]3(C)[C@H]1[C@@H]2C
T/C [5]: 100 % of control
T/C (dose: 50.0 mg/kg/injection, schedule: Q04DX003 (ip), vehicle: saline sonified): 110 % of control
T/C (dose: 88.0 mg/kg/injection, schedule: Q01DX009 (ip), vehicle: saline with Tween-80): 86 % of control
T/C (dose: 100.0 mg/kg/injection, schedule: Q04DX003 (ip), vehicle: Klucel (hydroxypropylcellulose) (HPC)): 109 % of control
T/C (dose: 100.0 mg/kg/injection, schedule: Q04DX003 (ip), vehicle: saline sonified): 100 % of control
T/C (dose: 132.0 mg/kg/injection, schedule: Q01DX009 (ip), vehicle: saline with Tween-80): 118 % of control
T/C (dose: 200.0 mg/kg/injection, schedule: Q04DX003 (ip), vehicle: Klucel (hydroxypropylcellulose) (HPC)): 104 % of control
T/C (dose: 200.0 mg/kg/injection, schedule: Q04DX003 (ip), vehicle: saline sonified): 105 % of control
T/C (dose: 300.0 mg/kg/injection, schedule: Q01DX009 (ip), vehicle: saline with Tween-80): 95 % of control

CC12CCCCC1=Nc1ccc3ccccc3c12 (stereo not given)
T/C (dose: 100.0 mg/kg/injection, schedule: Q01DX009 (ip), vehicle: saline + alcohol): 93 % of control

NC1=NC(=S)C2N=C(N=Nc3ccc(C(=O)NC(CCC(=O)O)C(=O)O)cc3)N=C2N1 (stereo not given)
T/C (dose: 1.56 mg/kg/injection, schedule: Q01DX009 (ip), vehicle: Klucel (hydroxypropylcellulose) (HPC)): 120 % of control
T/C (dose: 3.13 mg/kg/injection, schedule: Q01DX009 (ip), vehicle: Klucel (hydroxypropylcellulose) (HPC)): 91 % of control
T/C [6]: 87 % of control
T/C [4]: 120 % of control
T/C [5]: 112 % of control

CC12CCC(C1)C(C)(C)C2NCCCN1C(=O)c2ccc3c4c(ccc(c24)C1=O)C(=O)N(CCCNC1C2(C)CCC(C2)C1(C)C)C3=O (stereo not given)
T/C [6]: 105 % of control
T/C (dose: 12.5 mg/kg/injection, schedule: Q01DX009 (ip), vehicle: Klucel (hydroxypropylcellulose) (HPC)): 100 % of control
T/C (dose: 25.0 mg/kg/injection, schedule: Q01DX009 (ip), vehicle: Klucel (hydroxypropylcellulose) (HPC)): 115 % of control and 116 % of control

CC1(c2ccco2)NC(=O)N(Cl)C1=O (stereo not given)
T/C (dose: 50.0 mg/kg/injection, schedule: Q01DX009 (ip), vehicle: saline): 89 % of control
T/C (dose: 100.0 mg/kg/injection, schedule: Q01DX009 (ip), vehicle: saline): 98 % of control
T/C (dose: 200.0 mg/kg/injection, schedule: Q01DX009 (ip), vehicle: saline): 105 % of control

CCCCN(CCO)C(C#CC(C)(C)O)C(C)C (stereo not given)
T/C (dose: 50.0 mg/kg/injection, schedule: Q01DX001 (ip), vehicle: saline sonified): 110 % of control
T/C (dose: 100.0 mg/kg/injection, schedule: Q01DX001 (ip), vehicle: saline sonified): 110 % of control
T/C (dose: 200.0 mg/kg/injection, schedule: Q01DX001 (ip), vehicle: saline sonified): 105 % of control

CCC(=O)Oc1ccc2c(c1)CC[C@@H]1[C@@H]2CC[C@]2(C)C[C@H](OC(=O)CC)C[C@@H]12
T/C [7]: 100 % of control
T/C [2]: 95 % of control
T/C [8]: 118 % of control
T/C [1]: 100 % of control
T/C (dose: 400.0 mg/kg/injection, schedule: Q01DX009 (ip), vehicle: saline with Tween-80): 118 % of control
T/C [3]: 90 % of control

Nc1ccc2nc3ccccc3c(NCCCCCCCCNc3c4ccccc4nc4ccc(N)cc34)c2c1
T/C (dose: 2.5 mg/kg/injection, schedule: Q01DX009 (ip), vehicle: water): 154 % of control
T/C (dose: 10.0 mg/kg/injection, schedule: Q01DX009 (ip), vehicle: water): 165 % of control

Cc1nn(C)c2ccc([N+](=O)[O-])cc12
T/C (dose: 100.0 mg/kg/injection, schedule: Q01DX009 (ip), vehicle: Klucel (hydroxypropylcellulose) (HPC)): 118 % of control
T/C (dose: 200.0 mg/kg/injection, schedule: Q01DX009 (ip), vehicle: Klucel (hydroxypropylcellulose) (HPC)): 104 % of control
T/C (dose: 400.0 mg/kg/injection, schedule: Q01DX009 (ip), vehicle: Klucel (hydroxypropylcellulose) (HPC)): 122 % of control

C(=C\C1CC2CCCN2O1)/c1ccccc1 (stereo not given)
T/C (dose: 25.0 mg/kg/injection, schedule: Q01DX009 (ip), vehicle: saline with Tween-80): 100 % of control
T/C (dose: 50.0 mg/kg/injection, schedule: Q01DX009 (ip), vehicle: saline with Tween-80): 102 % of control and 105 % of control
T/C [7]: 100 % of control
T/C [8]: 98 % of control and 102 % of control

COc1ccc(-n2c(=O)c(N=Nc3ccccc3OC)c(O)n(-c3ccccc3C)c2=S)cc1
T/C (dose: 100.0 mg/kg/injection, schedule: Q01DX001 (ip), vehicle: Klucel (hydroxypropylcellulose) (HPC)): 111 % of control
T/C (dose: 200.0 mg/kg/injection, schedule: Q01DX001 (ip), vehicle: Klucel (hydroxypropylcellulose) (HPC)): 100 % of control
T/C (dose: 400.0 mg/kg/injection, schedule: Q01DX001 (ip), vehicle: Klucel (hydroxypropylcellulose) (HPC)): 88 % of control

Cc1c(C)c(N)c(C)c(C)c1N
T/C (dose: 3.0 mg/kg/injection, schedule: Q01DX009 (ip), vehicle: Klucel (hydroxypropylcellulose) (HPC)): 91 % of control
T/C (dose: 3.0 mg/kg/injection, schedule: Q04DX003 (ip), vehicle: Klucel (hydroxypropylcellulose) (HPC)): 108 % of control
T/C (dose: 6.0 mg/kg/injection, schedule: Q01DX009 (ip), vehicle: Klucel (hydroxypropylcellulose) (HPC)): 87 % of control
T/C (dose: 6.0 mg/kg/injection, schedule: Q04DX003 (ip), vehicle: Klucel (hydroxypropylcellulose) (HPC)): 100 % of control
T/C (dose: 12.0 mg/kg/injection, schedule: Q01DX009 (ip), vehicle: Klucel (hydroxypropylcellulose) (HPC)): 95 % of control
T/C (dose: 12.0 mg/kg/injection, schedule: Q04DX003 (ip), vehicle: Klucel (hydroxypropylcellulose) (HPC)): 91 % of control
